Earlier results as cited in patent publication US5854268A, “Azetidine, pyrrolidine and piperidine derivatives” (Merck Sharp & Dohme, Ltd., priority 1994, dated 1998).

Settings: therapeutic doses

## CNS(=O)(=O)Cc1ccc2[nH]cc(CCN(C)C)c2c1 [sumatriptan]
  adverse events in humans: certain adverse cardiovascular events
